Measurements taken from patent publication US4327097A, “Novel penicillins” (Toyama Chemical Co., Ltd., priority 1974, dated 1982).
Values after ≈ are worked out from the molar mass of the structure shown. Counter-ions that a name gives are not always drawn. Blank lines part the entries; values can stand above or below the molecule they belong to.

Experiments:
Format in all cases: cell-based
[1] = test system: Shigella flexneri; assay: MIC against clinical isolates; conditions: Table 5-5, clinical isolate; unit assumed
Experimental: (§1) The minimum inhibitory concentration (MIC) was determined by the plate method disclosed in "Chemotherapy" (Japan), Vol. 16, (1968), pages 98-99. The culture medium used was a Heart infusion agar (pH 7.4). The number of the cells per plate used in the inoculum was 10^4 (10^6 cells/ml).
(§2) MIC was determined in the same manner as in the preceding paragraph (1).

[2] = test system: Shigella sonnei; assay: MIC against clinical isolates; conditions: Table 5-5, clinical isolate; unit assumed
Experimental: as §1, §2

[3] = test system: Staphylococcus aureus; assay: MIC against clinical isolates; conditions: Table 5-1, clinical isolate; unit assumed
[4] = test system: Escherichia coli; assay: MIC against clinical isolates; conditions: unit assumed
[5] = test system: Klebsiella pneumoniae; assay: MIC, plate method, standard strains; conditions: unit assumed
Experimental: as §1

[6] = test system: Staphylococcus aureus 209p; assay: MIC, plate method, standard strains; conditions: Table 3, standard strain, Heart infusion agar pH 7.4; unit assumed
Experimental: as §1

[7] = test system: Proteus vulgaris 3027; assay: MIC, plate method, standard strains; conditions: unit assumed
Experimental: as §1

[8] = test system: Escherichia coli NIHJ; assay: MIC, plate method, standard strains; conditions: unit assumed; for MIC Esche--richin coil NIHJ: Table 3, standard strain
Experimental: as §1

[9] = test system: Pseudomonas aeruginosa I.F.O.; assay: MIC, plate method, standard strains; conditions: Table 3, standard strain; unit assumed
Experimental: as §1

[10] = test system: Pseudomonas aeruginosa; assay: MIC against clinical isolates; conditions: unit assumed
[11] = test system: Klebsiella pneumoniae; assay: MIC against clinical isolates; conditions: Table 6-4, clinical isolate; unit assumed

SMILES: CCCCN1CCN(C(=O)N[C@@H](C(=O)N[C@@H]2C(=O)N3[C@@H]2SC(C)(C)[C@@H]3C(=O)O)c2ccccc2)C(=O)C1 [Compound 14]
- MIC Shigella flexneri JS 11215 [1]: 25 µg/mL (≈ 47 µM)
- MIC Shigella flexneri JS 11839 [1]: 3.13 µg/mL (≈ 5.89 µM)
- MIC Shigella sonnei JS 11232 [2]: 25 µg/mL (≈ 47 µM)
- MIC Shigella sonnei JS 11755 [2]: 6.25 µg/mL (≈ 11.8 µM)
- MIC Staphylococcus aureus F-2 [3]: 1.57 µg/mL (≈ 2.95 µM)
- MIC Staphylococcus aureus F-4 [3]: 6.25 µg/mL (≈ 11.8 µM)
- MIC Staphylococcus aureus MS 8588 [3]: 3.13 µg/mL (≈ 5.89 µM)
- MIC Staphylococcus aureus MS 8596 [3]: 3.13 µg/mL (≈ 5.89 µM)
- MIC Staphylococcus aureus MS 8684 [3]: 3.13 µg/mL (≈ 5.89 µM)
- MIC Staphylococcus aureus MS 8713 [3]: 3.13 µg/mL (≈ 5.89 µM)
- MIC Escherichia coli GN 3435 ([4]; Table 5-2, clinical isolate): 6.25 µg/mL (≈ 11.8 µM)
- MIC Escherichia coli GN 3452 ([4]; Table 5-2, clinical isolate): 6.25 µg/mL (≈ 11.8 µM)
- MIC Escherichia coli GN 3481 ([4]; Table 5-2, clinical isolate): 6.25 µg/mL (≈ 11.8 µM)
- MIC Escherichia coli K-1 ([4]; Table 5-2, clinical isolate): 3.13 µg/mL (≈ 5.89 µM)
- MIC Escherichia coli K-4 ([4]; Table 5-2, clinical isolate): 6.25 µg/mL (≈ 11.8 µM)
- MIC Klebsiella pneumoniae ([5]; Table 3, standard strain): 3.13 µg/mL (≈ 5.89 µM)
- MIC Staphylococcus aureus 209p [6]: < 1.57 µg/mL
- MIC Proteus vulgaris 3027 ([7]; Table 3, standard strain): < 1.57 µg/mL
- MIC Esche--richin coil NIHJ [8]: < 1.57 µg/mL

SMILES: CC1(C)S[C@@H]2[C@H](NC(=O)[C@H](NC(=O)N3CCN(C(=O)Nc4ccccc4)C(=O)C3)c3ccccc3)C(=O)N2[C@H]1C(=O)O [Compound 33]
- MIC Staphylococcus aureus 209p [6]: < 1.57 µg/mL
- MIC Pseudomonas aeruginosa I.F.C [9]: 50 µg/mL (≈ 84.1 µM)
- MIC Esche--richin coil NIHJ [8]: < 1.57 µg/mL

- MIC Klebsiella pneumoniae ([5]; Table 3, standard strain): 50 µg/mL (≈ 84.2 µM)
- MIC Proteus vulgaris 3027 ([7]; Table 3, standard strain): 50 µg/mL (≈ 84.2 µM)
- MIC Pseudomonas aeruginosa I.F.C [9]: 100 µg/mL (≈ 168 µM)
SMILES: CC1(C)S[C@@H]2[C@H](NC(=O)[C@H](NC(=O)N3CC(=O)N(C(=O)c4ccccc4)CC3=O)c3ccccc3)C(=O)N2[C@H]1C(=O)O [Compound 34]

- MIC Pseudomonas aeruginosa I.F.C [9]: 100 µg/mL (≈ 173 µM)
SMILES: CC1(C)S[C@@H]2[C@H](NC(=O)[C@H](NC(=O)N3CC(=O)N(Cc4ccccc4)CC3=O)c3ccccc3)C(=O)N2[C@H]1C(=O)O [Compound 35]

- MIC Pseudomonas aeruginosa GN ([10]; Table 6-3, clinical isolate, strain number not given): 25 µg/mL (≈ 43.6 µM)
- MIC Pseudomonas aeruginosa GN4 ([10]; Table 6-3, clinical isolate): 12.5 µg/mL (≈ 21.8 µM)
SMILES: CCN1CCN(C(=O)NC(C(=O)NC2C(=O)N3C(C(=O)O)=C(COC(C)=O)CSC23)c2ccccc2)C(=O)C1=O (centres unmarked) [Compound No. 61]

- MIC Pseudomonas aeruginosa GN4 ([10]; Table 6-3, clinical isolate): 12.5 µg/mL (≈ 21.6 µM)
- MIC Pseudomonas aeruginosa GN 1035 ([10]; Table 6-3, clinical isolate): 50 µg/mL (≈ 86.4 µM)
- MIC Pseudomonas aeruginosa GN 2565 ([10]; Table 6-3, clinical isolate): 50 µg/mL (≈ 86.4 µM)
- MIC Klebsiella pneumoniae ([5]; Table 4, standard strain): < 0.79 µg/mL
- MIC Escherichia coli NIHJ ([8]; Table 4, standard strain): < 0.79 µg/mL
SMILES: CN1CCN(C(=O)N[C@@H](C(=O)N[C@@H]2C(=O)N3C(C(=O)[O-])=C(C[n+]4ccccc4)CS[C@H]23)c2ccccc2)C(=O)C1=O [Compound No. 68]

SMILES: CC(=O)N1CCN(C(=O)N[C@@H](C(=O)N[C@@H]2C(=O)N3[C@@H]2SC(C)(C)[C@@H]3C(=O)O)c2ccccc2)C(=O)C1 [Example 1, sodium salt of 6-[D(-)-α-(4-acetyl-2-oxo-1-piperazinocarbonylamino)phenylacetamido]penicillanic acid]
- MIC Shigella flexneri JS 11215 [1]: 100 µg/mL
- MIC Shigella flexneri JS 11839 [1]: 3.13 µg/mL
- MIC Shigella sonnei JS 11232 [2]: > 200 µg/mL
- MIC Shigella sonnei JS 11755 [2]: 12.5 µg/mL
- MIC Staphylococcus aureus F-1 [3]: 12.5 µg/mL
- MIC Staphylococcus aureus F-2 [3]: 3.13 µg/mL
- MIC Staphylococcus aureus F-4 [3]: 6.25 µg/mL
- MIC Staphylococcus aureus MS 8588 [3]: 6.25 µg/mL
- MIC Staphylococcus aureus MS 8596 [3]: 3.13 µg/mL
- MIC Staphylococcus aureus MS 8684 [3]: 3.13 µg/mL
- MIC Staphylococcus aureus MS 8713 [3]: 3.13 µg/mL
- MIC Escherichia coli GN 3435 ([4]; Table 5-2, clinical isolate): 6.25 µg/mL
- MIC Escherichia coli GN 3452 ([4]; Table 5-2, clinical isolate): 12.5 µg/mL
- MIC Escherichia coli GN 3481 ([4]; Table 5-2, clinical isolate): 12.5 µg/mL
- MIC Escherichia coli K-1 ([4]; Table 5-2, clinical isolate): 6.25 µg/mL
- MIC Escherichia coli K-4 ([4]; Table 5-2, clinical isolate): 12.5 µg/mL

SMILES: Cc1nnc(SCC2=C(C(=O)O)N3C(=O)[C@@H](NC(=O)Cn4cnnn4)[C@H]3SC2)s1 [Sodium Cephazolin, reference compound]
- MIC Escherichia coli GN 3435 ([4]; Table 6-2, clinical isolate): 1.56 µg/mL
- MIC Escherichia coli GN 3452 ([4]; Table 6-2, clinical isolate): 1.56 µg/mL
- MIC Escherichia coli GN 3481 ([4]; Table 6-2, clinical isolate): 1.56 µg/mL
- MIC Escherichia coli K-1 ([4]; Table 6-2, clinical isolate): 1.56 µg/mL
- MIC Escherichia coli K-2 ([4]; Table 6-2, clinical isolate): 1.56 µg/mL
- MIC Escherichia coli K-4 ([4]; Table 6-2, clinical isolate): 3.13 µg/mL
- MIC Pseudomonas aeruginosa GN4 ([10]; Table 6-3, clinical isolate): > 200 µg/mL
- MIC Pseudomonas aeruginosa S-4 ([10]; Table 6-4, clinical isolate): > 200 µg/mL
- MIC Klebsiella pneumoniae GN 917 [11]: 1.56 µg/mL
- MIC Klebsiella pneumoniae GN 4081 [11]: 3.13 µg/mL
- MIC Klebsiella pneumoniae GN 4117 [11]: 3.13 µg/mL

SMILES: CN1CCN(C(=O)NC(C(=O)N[C@@H]2C(=O)N3[C@@H]2SC(C)(C)[C@@H]3C(=O)O)c2cccs2)C(=O)C1=O (some centres unmarked) [compound 58]
- MIC Staphylococcus aureus 209p [6]: < 1.57 µg/mL
- MIC Esche--richin coil NIHJ [8]: < 1.57 µg/mL

SMILES: CC1(C)S[C@@H]2[C@H](NC(=O)[C@H](N)c3ccccc3)C(=O)N2[C@H]1C(=O)O [drawing 185, reference compound]
- MIC Staphylococcus aureus 209p [6]: < 1.57 µg/mL
- MIC Esche--richin coil NIHJ [8]: < 1.57 µg/mL

SMILES: CC1(C)S[C@@H]2[C@H](NC(=O)C(c3ccccc3)S(=O)(=O)O)C(=O)N2[C@H]1C(=O)O (some centres unmarked) [drawing 187, reference compound]
- MIC Esche--richin coil NIHJ [8]: 1.57 µg/mL (≈ 3.79 µM)

SMILES: CC(=O)N1CCN(C(=O)N[C@@H](C(=O)N[C@@H]2C(=O)N3[C@@H]2SC(C)(C)[C@@H]3C(=O)O)c2ccccc2)C(=O)C1 [drawing 188]
- MIC Klebsiella pneumoniae ([5]; Table 3, standard strain): 12.5 µg/mL (≈ 24.2 µM)
- MIC Proteus vulgaris 3027 ([7]; Table 3, standard strain): 3.13 µg/mL (≈ 6.05 µM)

SMILES: CC(=O)OCC1=C(C(=O)O)N2C(=O)[C@@H](NC(=O)[C@H](N)c3ccccc3)[C@H]2SC1 [drawing 247, reference compound]
- MIC Klebsiella pneumoniae ([5]; Table 4, standard strain): < 1.57 µg/mL
- MIC Proteus vulgaris 3027 ([7]; Table 4, standard strain): 100 µg/mL (≈ 247 µM)

SMILES: Cc1nnc(SCC2=C(C(=O)O)N3C(=O)[C@@H](NC(=O)Cn4cnnn4)[C@H]3SC2)s1 [drawing 249, reference compound]
- MIC Klebsiella pneumoniae ([5]; Table 4, standard strain): 1.57 µg/mL (≈ 3.45 µM)
- MIC Proteus vulgaris 3027 ([7]; Table 4, standard strain): 200 µg/mL (≈ 440 µM)
